Data set [1] deals with L5178Y. The data set can be described thus: Antiproliferative activity against chemosensitive wild type parental mouse L5178Y cells incubated for 72 hrs by MTT assay. Type of data set: functional, cell-based. Background: Tetrazolium assays rely on reduction of a dye to a coloured formazan, in cell work by metabolically active cells.
For data set [2], the target named is T1, ATP-dependent translocase ABCB1 (Homo sapiens, UniProt P08183). The data set can be described thus: Inhibition of human ABCB1 expressed in mouse L5178Y cells assessed as fluorescence activity ratio at 2 uM incubated for 10 mins by flow cytometry based rhodamine-123 accumulation assay (reference value: 0.78). Type of data set: cell-based. (Flow cytometry measures light scatter and fluorescence of single cells or particles in a stream.)

Data set [3] deals with L5178Y. The data set can be described thus: Antiproliferative activity against human ABCB1 expressing mouse L5178Y cells incubated for 72 hrs by MTT assay. The format is functional, cell-based.
Data set [4] deals with COLO 205. Put plainly: Cytotoxicity against chemosensitive human COLO205 cells incubated for 24 hrs by MTT assay. Type of data set: functional, cell-based. To be noted: COLO 205, 24 h.
The target in data set [5] is T1, ATP-dependent translocase ABCB1. Put plainly: Inhibition of ABCB1 in multidrug resistant human COLO320 cells assessed as fluorescence activity ratio at 2 uM incubated for 10 mins by flow cytometry based rhodamine-123 accumulation assay (reference value: 0.62).
A short description of data set [6]: Antiproliferative activity against multidrug resistant human COLO320 cells incubated for 72 hrs by MTT assay. The format is functional. The note with it: COLO 320, 72 h.
In data set [7] the target is T1, ATP-dependent translocase ABCB1. Put plainly: Inhibition of human ABCB1 expressed in mouse L5178Y cells assessed as fluorescence activity ratio at 20 uM incubated for 10 mins by flow cytometry based rhodamine-123 accumulation assay (reference value: 0.78). The format is cell-based.
The nature of data set [8]: Antiproliferative activity against chemosensitive human COLO205 cells incubated for 72 hrs by MTT assay. Type of data set: functional, cell-based. To be noted: COLO 205, 72 h.
Data set [9] is described as follows: Cytotoxicity against multidrug resistant human COLO320 cells incubated for 24 hrs by MTT assay. The format is functional, cell-based. The note with it: COLO 320, 24 h.
In data set [10] the test system is L5178Y. The data set can be described thus: Selectivity index, ratio of antiproliferative IC50 for wild type parental mouse L5178Y cells to antiproliferative IC50 for human ABCB1 expressing mouse L5178Y cells. Type of data set: functional.
Data set [11] concerns L5178Y. Put plainly: Cytotoxicity against chemosensitive wild type parental mouse L5178Y cells incubated for 24 hrs by MTT assay. Type of data set: functional, cell-based.
Data set [12] concerns L5178Y. The data set can be described thus: Cytotoxicity against human ABCB1 expressing mouse L5178Y cells incubated for 24 hrs by MTT assay. The format is functional, cell-based.
Data set [13] deals with T1, ATP-dependent translocase ABCB1. The data set can be described thus: Inhibition of ABCB1 in multidrug resistant human COLO320 cells assessed as fluorescence activity ratio at 20 uM incubated for 10 mins by flow cytometry based rhodamine-123 accumulation assay (reference value: 0.62).
Data set [14] is described as follows: Selectivity index, ratio of cytotoxic IC50 for chemosensitive human COLO205 cells to cytotoxic IC50 for multidrug resistant human COLO320 cells. Type of data set: functional, COLO 205.
Data set [15] has as its target T1, ATP-dependent translocase ABCB1. The data set can be described thus: Inhibition of human ABCB1 expressed in mouse L5178Y cells assessed as potentiation of 2 mg/ml doxorubicin-induced cytotoxicty by measuring combination index at 5:1 compound to doxorubicin ratio incubated for 48 hrs by MTT assay. The format is cell-based.
Data set [16] in a line: Selectivity index, ratio of antiproliferative IC50 for chemosensitive human COLO205 cells to antiproliferative IC50 for multidrug resistant human COLO320 cells. The format is functional, COLO 205.
The subject of data set [17] is L5178Y. Put plainly: Selectivity index, ratio of cytotoxic IC50 for wild type parental mouse L5178Y cells to cytotoxic IC50 for human ABCB1 expressing mouse L5178Y cells. The format is functional.
The target of data set [18] is T1, ATP-dependent translocase ABCB1. The data set can be described thus: Inhibition of ABCB1 in multidrug resistant human COLO320 cells assessed as fluorescence activity ratio at 0.2 uM incubated for 10 mins by flow cytometry based rhodamine-123 accumulation assay (reference value: 0.62).
Data set [19] has the same target. Put plainly: Inhibition of human ABCB1 expressed in mouse L5178Y cells assessed as fluorescence activity ratio at 0.2 uM incubated for 10 mins by flow cytometry based rhodamine-123 accumulation assay (reference value: 0.78). Type of data set: cell-based.

T1 sequence (P08183 whole entry): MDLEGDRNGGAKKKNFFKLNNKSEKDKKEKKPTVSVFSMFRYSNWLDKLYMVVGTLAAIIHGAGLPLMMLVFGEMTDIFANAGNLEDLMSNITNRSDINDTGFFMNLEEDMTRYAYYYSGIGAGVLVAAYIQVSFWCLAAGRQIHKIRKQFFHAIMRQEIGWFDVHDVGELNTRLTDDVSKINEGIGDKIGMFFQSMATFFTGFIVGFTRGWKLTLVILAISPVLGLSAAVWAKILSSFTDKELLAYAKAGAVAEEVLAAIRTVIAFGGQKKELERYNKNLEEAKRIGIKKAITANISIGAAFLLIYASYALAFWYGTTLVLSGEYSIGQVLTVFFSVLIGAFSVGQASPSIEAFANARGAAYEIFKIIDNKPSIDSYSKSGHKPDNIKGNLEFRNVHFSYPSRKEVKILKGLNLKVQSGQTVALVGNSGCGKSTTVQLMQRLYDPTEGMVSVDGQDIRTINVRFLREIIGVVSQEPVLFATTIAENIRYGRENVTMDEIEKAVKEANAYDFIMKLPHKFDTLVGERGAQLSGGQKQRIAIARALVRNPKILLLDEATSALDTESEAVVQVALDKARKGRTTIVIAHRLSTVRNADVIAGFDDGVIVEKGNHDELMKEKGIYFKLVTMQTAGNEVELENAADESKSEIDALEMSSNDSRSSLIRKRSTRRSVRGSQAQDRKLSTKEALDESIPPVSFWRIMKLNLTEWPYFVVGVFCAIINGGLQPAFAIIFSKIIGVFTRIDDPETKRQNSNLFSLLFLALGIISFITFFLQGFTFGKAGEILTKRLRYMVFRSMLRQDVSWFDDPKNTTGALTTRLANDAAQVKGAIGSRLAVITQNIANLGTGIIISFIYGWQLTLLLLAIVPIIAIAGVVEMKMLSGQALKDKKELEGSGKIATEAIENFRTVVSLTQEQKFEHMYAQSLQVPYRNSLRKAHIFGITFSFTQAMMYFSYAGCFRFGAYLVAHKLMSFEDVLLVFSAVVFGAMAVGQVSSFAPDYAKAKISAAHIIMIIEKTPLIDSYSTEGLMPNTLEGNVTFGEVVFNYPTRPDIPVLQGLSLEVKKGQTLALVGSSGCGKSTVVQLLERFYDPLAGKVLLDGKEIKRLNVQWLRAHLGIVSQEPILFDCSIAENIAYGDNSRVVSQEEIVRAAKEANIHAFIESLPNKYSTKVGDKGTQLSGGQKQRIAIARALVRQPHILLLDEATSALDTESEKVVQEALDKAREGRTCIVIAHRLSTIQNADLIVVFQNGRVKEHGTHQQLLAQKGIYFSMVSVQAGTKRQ

`C/C1=C\[C@@H]2[C@H](CC[C@]3(CO3)[C@H](OC(=O)c3ccc(-c4ccccc4)cc3)[C@H]3[C@@H](OC(=O)c4ccc(-c5ccccc5)cc4)[C@@H](C)C[C@]3(O)C1=O)C2(C)C`: the half-maximal inhibitory concentration (IC50) was 74.3 µM in data set [1]; above 100 µM in data set [3]; above 100 µM in data set [4]; above 100 µM in data set [6]; above 100 µM in data set [8]; above 100 µM in data set [9]. The IC50 in data set [11] and in data set [12] was above 100 µM throughout. For the same compound, the Ratio in data set [2] was determined as 22.82; in [5], 2.7; in data set [7], 30.97; in data set [13] it was 2.64. In addition, the “Ratio IC50” value in [10] is below 0.74.

On to `C/C1=C\[C@@H]2[C@H](CC[C@]3(CO3)[C@H](OC(=O)c3cccc(C)c3)[C@H]3[C@@H](OC(=O)c4cccc(C)c4)[C@@H](C)C[C@]3(O)C1=O)C2(C)C`, for which the “Ratio IC50” value in [14] is recorded as above 2.09; in [16] it was 0.98; in data set [17], below 0.53; in data set [10] it was 1.44. Further, the CI in data set [15] stood at 0.066. In addition, the concentration for half-maximal inhibition (IC50) was 41.8 µM in data set [1]; 29 µM in [3]; above 50 µM in [4]; 15.7 µM in data set [6]; 15.4 µM in data set [8]; 23.9 µM in data set [9]. Moreover, the half-inhibitory concentration (IC50) was 26.4 µM in data set [11] and above 50 µM in data set [12]. Besides, the Ratio in [2] was 86.39; in data set [5] it was 5.59; in data set [7], 83.29; in data set [13], 6.86; in data set [18] it was 3; in data set [19] it was 3.55.

As for `C/C1=C\[C@@H]2[C@H](CC[C@]3(CO3)[C@H](OC(=O)c3ccc(C(F)(F)F)cc3)[C@H]3[C@@H](OC(=O)c4ccc(C(F)(F)F)cc4)[C@@H](C)C[C@]3(O)C1=O)C2(C)C`, the IC50 in data set [1], in data set [3], in [4], in data set [6], in [8] and in data set [9] was above 100 µM each time. For the same compound, the IC50 in [11] and in data set [12] was above 100 µM throughout. The Ratio in [2] is on record as 38.72; in [5], 2.52; in data set [7] it was 38.97; in data set [13], 3.39.

`C/C1=C\[C@@H]2[C@H](CC[C@]3(CO3)[C@H](OC(=O)c3ccco3)[C@H]3[C@@H](OC(=O)c4ccco4)[C@@H](C)C[C@]3(O)C1=O)C2(C)C`: the CI in data set [15] worked out at 0.053. Further, the 50% inhibitory concentration (IC50) in data set [1] was 24.8 µM; in data set [3] it was above 50 µM; in data set [4], above 50 µM; in [6], 28.4 µM; in data set [8], 27.8 µM; in data set [9], above 50 µM. For the same compound, the 50% inhibitory concentration (IC50) in data set [11] and in data set [12] was above 50 µM each time. Also, the Ratio worked out at 6.09 in [2], 1.67 in data set [5], 42.56 in [7] and 5.5 in data set [13]. The “Ratio IC50” value in [16] is reported as 0.98; in data set [10], below 0.5.

Turning to `C/C1=C\[C@@H]2[C@H](CC[C@]3(CO3)[C@H](OC(=O)C34CC5CC(CC(C5)C3)C4)[C@H]3[C@@H](OC(=O)C45CC6CC(CC(C6)C4)C5)[C@@H](C)C[C@]3(O)C1=O)C2(C)C`, the IC50 is above 50 µM in data set [1]; above 50 µM in data set [3]; above 50 µM in data set [4]; 27.6 µM in data set [6]; above 50 µM in data set [8]; above 50 µM in data set [9]. The half-inhibitory concentration (IC50) in data set [11] and in data set [12] was above 50 µM throughout. Further, the Ratio in data set [2] was found to be 22.36; in data set [5], 1.2; in data set [7], 31.69; in [13], 1.64. Also, in data set [16], the “Ratio IC50” value is above 1.81.

`CCN(CC)C(=O)O[C@@H]1[C@@H]2[C@@H](OC(=O)N(CC)CC)[C@]3(CC[C@H]4[C@@H](/C=C(\C)C(=O)[C@@]2(O)C[C@@H]1C)C4(C)C)CO3`: the IC50 in [1], in data set [3], in data set [4], in data set [6], in data set [8] and in data set [9] was above 100 µM throughout. Besides, the concentration for half-maximal inhibition (IC50) in [11] and in data set [12] was above 100 µM in each case. The Ratio was determined as 1.71 in data set [2], 1.54 in data set [5], 10.62 in data set [7] and 3.54 in data set [13].

On to `CO[C@H]1[C@@H]2[C@H](CC[C@]3(COC(=O)c4ccc(C(F)(F)F)cc4)O[C@@H]3[C@H]3[C@@H](OC(=O)c4ccc(C(F)(F)F)cc4)[C@@H](C)C[C@]3(O)C(=O)[C@@H]1C)C2(C)C`, for which the CI in [15] turned out to be 0.054. Further, the 50% inhibitory concentration (IC50) in data set [1] is 33.3 µM; in [3], 37.6 µM; in [6], 9.3 µM; in [8], 8.2 µM; in [11], 48 µM; in data set [12] it was 50.9 µM. For the same compound, the Ratio was found to be 39.3 in data set [2]; 8.25 in [5]; 41.81 in data set [7]; 11.56 in [13]; 2.83 in data set [18]; 9.87 in [19]. Also, the results for the “Ratio IC50” value in data set [16], in [17] and in data set [10] were 0.88, 0.94 and 0.78, respectively.

Take `CC(=O)O[C@@H]1[C@@H]2[C@@H](OC(C)=O)[C@](C)(OC(C)=O)CC[C@H]3[C@@H](/C=C(\C)[C@H](OC(C)=O)[C@@]2(OC(C)=O)C[C@@H]1C)C3(C)C`: in data set [14], the “Ratio IC50” value turned out to be 0.96. In data set [15], the CI was 0.205. Besides, the IC50 is above 100 µM in data set [1]; above 100 µM in [3]; 49.1 µM in data set [4]; above 100 µM in [6]; above 100 µM in data set [8]; 51.4 µM in data set [9]. The IC50 in data set [11] and in data set [12] was above 100 µM throughout. Moreover, the Ratio in data set [2] came out at 11.37; in data set [5], 2.76; in data set [7], 51.34; in [13], 5.98.

For the compound `C/C1=C\[C@@H]2[C@H](CC[C@@](C)(O)[C@H](O)[C@H]3[C@@H](OC(=O)c4ccccc4)[C@@H](C)C[C@]3(O)[C@H]1OC(=O)c1ccccc1)C2(C)C`, the “Ratio IC50” value in data set [14] is given as 0.88; in [16], above 3.28; in [17], 1.03; in data set [10], below 0.39. For the same compound, the IC50 in data set [1] was 38.5 µM; in [3] it was above 100 µM; in data set [4] it was 44.9 µM; in data set [6], 30.5 µM; in data set [8] it was above 100 µM; in data set [9] it was 51.2 µM. Besides, the figures for the 50% inhibitory concentration (IC50) in data set [11] and in data set [12] were 52.4 µM and 50.7 µM, respectively. The Ratio stood at 43.35 in data set [2]; 2.94 in [5]; 71.12 in data set [7]; 5.78 in data set [13]; 1.48 in data set [18]; 2.33 in data set [19].

On to `CCC(=O)OC[C@]1(O)CC[C@H]2[C@@H](/C=C(\C)C(=O)[C@@]3(O)C[C@H](C)[C@H](OC(=O)CC)[C@@H]3[C@H]1O)C2(C)C`, for which the concentration for half-maximal inhibition (IC50) in data set [1], in data set [3], in [4], in [6], in [8] and in data set [9] was above 100 µM in each case. Also, the IC50 in [11] and in data set [12] was above 100 µM throughout. In addition, the Ratio in [2] stood at 1.16; in data set [5] it was 1.1; in data set [7] it was 2.07; in data set [13], 2.25.

As usually defined, the IC50 is the concentration that gives 50% inhibition.

Values taken from ChEMBL document CHEMBL3608294, “Epoxylathyrol Derivatives: Modulation of ABCB1-Mediated Multidrug Resistance in Human Colon Adenocarcinoma and Mouse T-Lymphoma Cells” (J Nat Prod, 2015).
